Source: patent publication US5356907A, “1-cycloalkylpyridones as analgesics” (priority 1989, dated 1994)

What was measured:
opiated K Receptor = target: T1, opiated K Receptor (Cavia porcellus, UniProt P41144); experiment: Bonding to the opiated K Receptor in Vitro; type: binding; conditions: displacement of 1 nM 3H-ethylketocyclazocin, guinea pig brain membranes, Tris pH 7.7, 25° C., 40 minutes
T1 construct: Membrane samples preserved at -30° C; (optionally for approximately 30 days) are used and prepared from guinea pig brains; from tissue; host or cells: guinea pig brain membranes
Procedure: 1) Bonding to the opiated K Receptor in Vitro
Membrane samples preserved at -30° C. (optionally for approximately 30 days) are used and prepared from guinea pig brains.
These samples are put in suspension in Tris pH 7.7 buffer. Fractions of 2 cm^3 are distributed in hemolysis tubes and 1 nM of 9^3 H-ethylketocyclazocin and the product to be studied are added. The product is first tested at 5×10^-6 M (in triplicate). When the test product displaces more than 50% of the radioactivity linked specifically to the receptor, it is tested again according to a range of 7 doses so as to determine the dose that inhibits 50% of the radioactivity linked specifically to the receptor. Thus the 50% inhibiting concentration is determined.
The non-specific bond is determined by the addition of known product under the name U-50488 H (Lahti et al. 1982, Life Sci. 31, 2257) at 10^-5 M (in triplicate). After incubating at 25° C. for 40 minutes, returning to the water bath at 0° C. for 5 minutes, filtering under vacuum, rinsing with Tris pH 7.7 buffer, the radioactivity is counted in the presence of Trition scintillator.
The result is expressed directly as 50% inhibiting concentration (IC50), namely as the concentration of studied product expressed in nM, necessary to displace 50% of the radioactivity specifically fixed on the studied receptor.

cardiac rhythm disorders = experiment: Anti-arythmic action in the rat (aconitine perfusion); type: in vivo; conditions: intravenous, 5 minutes before aconitine 10 micrograms/mn, anaesthetised male rat
Procedure: 2) Anti-arythmic action in the rat
Male rate weighing 300-350 g anaesthetised by interperitonal route using 1.20 g/kg of urethane are tracheotomized and subjected to artificial respiration (40-50 insufflations of 3 ml/minute).
needles are implanted subcutaneously so as to record the rats' electrocardiogram on the DII derivation signal.
The test products are administered by intravenous route. Five minutes after administration of the product, the jugular vein is perfused with aconitine at the rate of 10 micrograms/mn and the time taken for the appearance of cardiac rhythm disorders is noted.
The results are expressed as a percentage of the increase in the time taken for cardiac rhythm disorders to appear relative to the controls and according to the dose of the test product.

T1 sequence (P41144 whole entry): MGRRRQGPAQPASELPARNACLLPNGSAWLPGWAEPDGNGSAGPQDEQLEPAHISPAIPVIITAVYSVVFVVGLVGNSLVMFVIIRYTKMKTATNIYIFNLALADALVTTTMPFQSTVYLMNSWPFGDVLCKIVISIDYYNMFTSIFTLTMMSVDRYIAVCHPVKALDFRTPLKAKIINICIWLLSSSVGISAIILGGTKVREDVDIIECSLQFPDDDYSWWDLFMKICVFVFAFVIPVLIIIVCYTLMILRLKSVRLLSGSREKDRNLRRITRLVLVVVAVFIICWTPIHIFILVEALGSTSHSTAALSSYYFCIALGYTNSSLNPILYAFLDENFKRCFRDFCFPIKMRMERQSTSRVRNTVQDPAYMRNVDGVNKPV

## O=C1C(c2ccc(Cl)c(Cl)c2)CCCN1[C@@H]1CCCC[C@H]1N1CCCC1 (mixture of isomers) [Example 4, [Trans, (±)]-3-(3,4-dichlorophenyl)-1-[2-(1-pyrrolidinyl)-cyclohexyl]-2piperidinone]
Opiated K Receptor
  IC50: 22 nM
Cardiac rhythm disorders; dose 2.5 mg/kg, 2.5 mg/kg
  Percentage increase in time (taken for cardiac rhythm disorders to appear relative to the controls): 23%
Cardiac rhythm disorders; dose 5 mg/kg, 5 mg/kg
  Percentage increase in time (taken for cardiac rhythm disorders to appear relative to the controls): 48%

## O=C1C(c2ccc(Cl)c(Cl)c2)CCCN1[C@@H]1CCCC[C@H]1N1CCCC1 (mixture of isomers) [Example 5, [Trans, (±)]-3-(3,4-dichlorophenyl)-1-[2-(1-pyrrolidinyl)-cyclohexyl]-2-piperidinone]
Cardiac rhythm disorders; dose 2.5 mg/kg, 2.5 mg/kg
  Percentage increase in time (taken for cardiac rhythm disorders to appear relative to the controls): 26%
Cardiac rhythm disorders; dose 5 mg/kg, 5 mg/kg
  Percentage increase in time (taken for cardiac rhythm disorders to appear relative to the controls): 33%

## COc1ccc(C2C(=O)CCN([C@@H]3CCCC[C@H]3N3CCCC3)C2=O)cc1OC (mixture of isomers) [Example 7, [Trans,(±)]-3-(3,4-dimethoxy-phenyl)-1-[2-(1-pyrrolidinyl)-cyclohexyl]-2,4-piperidinedione]
Opiated K Receptor
  IC50: 0.2 nM

## O=C1C(c2ccc(Cl)c(Cl)c2)=CCCN1[C@@H]1CCCC[C@H]1N1CCCC1 (relative stereo) [Example 3, [Trans, (±)]-3-(3,4-dichlorophenyl)-5,6-dihydro-1-[2-(1-pyrrolidinyl)cyclohexyl)-2-(1H)-pyridinone]
Cardiac rhythm disorders; dose 2.5 mg/kg
  Percentage increase in time (taken for cardiac rhythm disorders to appear relative to the controls): 52%
Cardiac rhythm disorders; dose 5 mg/kg
  Percentage increase in time (taken for cardiac rhythm disorders to appear relative to the controls): 55%

## COc1ccc(C2=CCCN([C@@H]3CCCC[C@H]3N3CCCC3)C2=O)cc1OC (relative stereo) [Example 8, [Trans-(±)]-5,6-dihydro-3-(3,4-dimethoxyphenyl)-1-[2(1-pyrrolidinyl)-cyclohexyl]-2-[1H)-pyridinone]
Opiated K Receptor
  IC50: 9 nM
